Like-named read-outs stand apart in the source and are kept apart here.
How the values were obtained:
[1] = Storage stability: impurity content by HPLC; format: physicochemical; conditions: 5° C.±3° C.
Method: The HPLC chromatographic method used included an assembly fitted with an automatic injector and variable wavelength UV detector set at 267 nm. The column was stainless steel with a length of 150 mm and diameter of 3.9 mm and filled with octadecylsilyl silica gel—300 Å—spherical, 5 μm. The mobile phase was carried out with sodium decanesulfonate (1.2217 g), phosphate buffer 0.05 M (pH=4.2) 380 ml, and methanol (620 ml), with a thermostatically-controlled column temperature of +40° C. and a mobile phase flow rate of 1 ml/min.
Each batch was stored over the analysis time at 5° C.±3° C.

[2] = 5° C.±3° C., aqueous vinorelbine 10 mg/ml as base
Method: In this experiment, pure powder form vinorelbine was compared to soft capsule encapsulated vinorelbine liquid fill composition of the invention (Formula 1.). Coloration was measured at 5° C.±3° C. by ultraviolet absorbance at 420 nm of aqueous vinorelbine at 10 mg/ml expressed as vinorelbine base. […] Mean variation was calculated as from the difference between the average of the results at the per given analysis time and the average of the results at the initial time (t0) for several batches (3 batches for the vinorelbine powder, 3 batches for the 20 mg soft capsules, 4 batches for the 30 mg soft capsules, 3 batches for the 40 mg soft capsules, 3 batches for the 80 mg soft capsules.)

Impurity content, max. variation (t0→analysis time) ([1]; 6 months): 0.21 Relative Area Percent
Impurity content, mean variation (t0→analysis time) ([1]; 6 months): 0.12 Relative Area Percent
Impurity content, max. variation (t0→analysis time) ([1]; 12 months): 0.44 Relative Area Percent
Impurity content, mean variation (t0→analysis time) ([1]; 12 months): 0.39 Relative Area Percent
Impurity content, max. variation (t0→analysis time) ([1]; 18 months): 0.85 Relative Area Percent
Impurity content, mean variation (t0→analysis time) ([1]; 18 months): 0.78 Relative Area Percent
Impurity content, max. variation (t0→analysis time) ([1]; 24 months): 1.32 Relative Area Percent
Impurity content, mean variation (t0→analysis time) ([1]; 24 months): 1.13 Relative Area Percent
Color evolution (absorbance at 420 nm), max. variation (t0→analysis time) ([2]; 6 months): 0.012
Color evolution (absorbance at 420 nm), mean variation (t0→analysis time) ([2]; 6 months): 0.006
Color evolution (absorbance at 420 nm), max. variation (t0→analysis time) ([2]; 12 months): 0.015
Color evolution (absorbance at 420 nm), mean variation (t0→analysis time) ([2]; 12 months): 0.013
Color evolution (absorbance at 420 nm), max. variation (t0→analysis time) ([2]; 18 months): 0.025
Color evolution (absorbance at 420 nm), mean variation (t0→analysis time) ([2]; 18 months): 0.017
Color evolution (absorbance at 420 nm), max. variation (t0→analysis time) ([2]; 24 months): 0.041
Color evolution (absorbance at 420 nm), mean variation (t0→analysis time) ([2]; 24 months): 0.029
SMILES: CCC1=C[C@@H]2CN(C1)Cc1c([nH]c3ccccc13)[C@@](C(=O)OC)(c1cc3c(cc1OC)N(C)[C@H]1[C@@](O)(C(=O)OC)[C@H](OC(C)=O)[C@]4(CC)C=CCN5CC[C@]31[C@@H]54)C2 [Vinorelbine (powder), 3′,4′-didehydro-4′-deoxy-C′-norvincaleucoblastine]
